The values that follow come from EP4745135A1 (Gluetacs Therapeutics (Shanghai) Co., Ltd., priority 2023, dated 2025).

The test system of one experiment is GSPT1. The experiment can be described thus: Western blot, degradation of substrate protein in hPBMCs. The class given is cell-based, Human. The following applies: Western blot, 24 hours of compound treatment, compounds tested at 50 nM and 500 nM (concentration for the table not stated). A general note: A western blot detects proteins with antibodies after separation by electrophoresis.

The target in experiment [1] is T1, human Cereblon WT GST-tagged protein (Homo sapiens, UniProt Q96SW2).
T1 construct: purchased CISBIO 64BDCRBNPEH
Nature of the experiment: CRBN-binding affinity, HTRF (CEREBLON BINDING kit). The following applies: for inhibition at 0.5 µM: read-out: Inhibition Rate at 0.5 µM (%); for inhibition at 2 µM: read-out: Inhibition Rate at 2 µM (%). For orientation: TR-FRET usually uses a lanthanide donor and a delayed reading to cut background.

In another experiment the target is T2, IKZF3 (Homo sapiens, UniProt Q96SW2+Q9UKT9).
T2 construct: effects of the compounds of the present disclosure on the expression of target proteins in cells; endogenous in cells; host or cells: human PBMCs (Milecell Biotechnologies)
The experiment can be described thus: Western blot, degradation of substrate protein in hPBMCs. The experiment is classed as cell-based. The following applies: Western blot, 24 hours of compound treatment, compounds tested at 50 nM and 500 nM (concentration for the table not stated).

The next experiment has as its target T3, CK1α (Homo sapiens, UniProt P48729+Q96SW2).
T3 construct: effects of the compounds of the present disclosure on the expression of target proteins in cells; endogenous in cells; host or cells: human PBMCs (Milecell Biotechnologies)
The experiment is described as above. The class given is cell-based. The following applies: Western blot, 24 hours of compound treatment, compounds tested at 50 nM and 500 nM (concentration for the table not stated).

The next experiment addresses T4, IKZF2 (Homo sapiens, UniProt Q96SW2+Q9UKS7).
T4 construct: effects of the compounds of the present disclosure on the expression of target proteins in cells; endogenous in cells; host or cells: human PBMCs (Milecell Biotechnologies)
Described as above. To be noted: Western blot, 24 hours of compound treatment, compounds tested at 50 nM and 500 nM (concentration for the table not stated). The experiment is classed as cell-based.

The next experiment has as its target T5, IKZF1 (Homo sapiens, UniProt Q13422+Q96SW2).
T5 construct: effects of the compounds of the present disclosure on the expression of target proteins in cells; endogenous in cells; host or cells: human PBMCs (Milecell Biotechnologies)
The description is as above. The class given is cell-based. To be noted: Western blot, 24 hours of compound treatment, compounds tested at 50 nM and 500 nM (concentration for the table not stated).

The target of a further experiment is T6, WEE1 (Homo sapiens, UniProt P30291+Q96SW2).
T6 construct: effects of the compounds of the present disclosure on the expression of target proteins in cells; endogenous in cells; host or cells: human PBMCs (Milecell Biotechnologies)
Described as above. To be noted: Western blot, 24 hours of compound treatment, compounds tested at 50 nM and 500 nM (concentration for the table not stated). The experiment is classed as cell-based.

T3 sequence (P48729 whole entry): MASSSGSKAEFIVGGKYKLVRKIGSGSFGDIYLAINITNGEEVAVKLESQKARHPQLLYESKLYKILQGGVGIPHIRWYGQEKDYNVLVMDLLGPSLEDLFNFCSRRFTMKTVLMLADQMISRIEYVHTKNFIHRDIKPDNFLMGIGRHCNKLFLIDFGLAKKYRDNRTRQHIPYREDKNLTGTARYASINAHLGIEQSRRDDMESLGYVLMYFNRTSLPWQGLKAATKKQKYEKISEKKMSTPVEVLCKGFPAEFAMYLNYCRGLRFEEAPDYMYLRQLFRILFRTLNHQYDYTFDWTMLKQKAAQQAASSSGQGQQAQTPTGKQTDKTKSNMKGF
T3 sequence (Q96SW2 whole entry): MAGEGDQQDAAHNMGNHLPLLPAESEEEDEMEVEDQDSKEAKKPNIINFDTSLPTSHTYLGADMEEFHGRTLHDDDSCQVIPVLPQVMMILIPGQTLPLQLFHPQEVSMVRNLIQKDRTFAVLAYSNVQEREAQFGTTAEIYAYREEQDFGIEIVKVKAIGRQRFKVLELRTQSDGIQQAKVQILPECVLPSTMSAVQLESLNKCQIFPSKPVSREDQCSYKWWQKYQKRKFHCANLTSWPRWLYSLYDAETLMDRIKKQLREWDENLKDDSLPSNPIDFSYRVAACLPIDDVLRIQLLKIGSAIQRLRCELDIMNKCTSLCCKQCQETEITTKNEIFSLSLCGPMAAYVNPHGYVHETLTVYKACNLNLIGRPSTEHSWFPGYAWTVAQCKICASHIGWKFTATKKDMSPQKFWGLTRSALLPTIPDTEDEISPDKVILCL
T3 sequence (Q16531 whole entry partner): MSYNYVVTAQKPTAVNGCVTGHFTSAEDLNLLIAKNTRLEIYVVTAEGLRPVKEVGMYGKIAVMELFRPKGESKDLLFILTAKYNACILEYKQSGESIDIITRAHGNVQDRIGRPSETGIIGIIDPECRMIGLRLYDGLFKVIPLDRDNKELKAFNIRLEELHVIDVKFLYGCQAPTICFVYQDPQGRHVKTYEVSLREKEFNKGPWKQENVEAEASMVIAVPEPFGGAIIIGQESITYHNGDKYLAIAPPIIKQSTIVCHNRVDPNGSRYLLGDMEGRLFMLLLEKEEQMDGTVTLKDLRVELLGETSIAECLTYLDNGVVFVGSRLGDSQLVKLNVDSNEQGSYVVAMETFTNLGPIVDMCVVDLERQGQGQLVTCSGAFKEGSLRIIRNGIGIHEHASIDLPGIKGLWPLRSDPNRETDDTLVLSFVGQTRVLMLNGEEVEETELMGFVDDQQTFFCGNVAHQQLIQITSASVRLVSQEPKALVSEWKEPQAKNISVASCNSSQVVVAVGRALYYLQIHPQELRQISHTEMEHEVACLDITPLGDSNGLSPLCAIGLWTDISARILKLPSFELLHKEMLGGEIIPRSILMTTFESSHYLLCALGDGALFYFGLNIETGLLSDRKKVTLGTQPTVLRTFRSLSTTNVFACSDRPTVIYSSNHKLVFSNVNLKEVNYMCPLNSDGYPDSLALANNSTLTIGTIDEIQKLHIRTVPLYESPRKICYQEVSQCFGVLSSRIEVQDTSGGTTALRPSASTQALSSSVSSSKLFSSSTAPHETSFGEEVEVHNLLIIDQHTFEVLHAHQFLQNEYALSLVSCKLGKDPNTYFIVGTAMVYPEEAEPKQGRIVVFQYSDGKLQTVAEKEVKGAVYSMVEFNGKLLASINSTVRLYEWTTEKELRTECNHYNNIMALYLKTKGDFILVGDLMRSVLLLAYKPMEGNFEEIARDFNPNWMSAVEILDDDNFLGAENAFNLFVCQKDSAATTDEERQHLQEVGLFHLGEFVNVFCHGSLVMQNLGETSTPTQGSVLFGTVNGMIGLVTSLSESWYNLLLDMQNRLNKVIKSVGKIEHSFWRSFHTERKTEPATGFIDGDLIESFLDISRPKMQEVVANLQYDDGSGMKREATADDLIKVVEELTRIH
T1 sequence (Q96SW2 whole entry): as the sequence (Q96SW2 whole entry) above
T6 sequence (P30291 whole entry): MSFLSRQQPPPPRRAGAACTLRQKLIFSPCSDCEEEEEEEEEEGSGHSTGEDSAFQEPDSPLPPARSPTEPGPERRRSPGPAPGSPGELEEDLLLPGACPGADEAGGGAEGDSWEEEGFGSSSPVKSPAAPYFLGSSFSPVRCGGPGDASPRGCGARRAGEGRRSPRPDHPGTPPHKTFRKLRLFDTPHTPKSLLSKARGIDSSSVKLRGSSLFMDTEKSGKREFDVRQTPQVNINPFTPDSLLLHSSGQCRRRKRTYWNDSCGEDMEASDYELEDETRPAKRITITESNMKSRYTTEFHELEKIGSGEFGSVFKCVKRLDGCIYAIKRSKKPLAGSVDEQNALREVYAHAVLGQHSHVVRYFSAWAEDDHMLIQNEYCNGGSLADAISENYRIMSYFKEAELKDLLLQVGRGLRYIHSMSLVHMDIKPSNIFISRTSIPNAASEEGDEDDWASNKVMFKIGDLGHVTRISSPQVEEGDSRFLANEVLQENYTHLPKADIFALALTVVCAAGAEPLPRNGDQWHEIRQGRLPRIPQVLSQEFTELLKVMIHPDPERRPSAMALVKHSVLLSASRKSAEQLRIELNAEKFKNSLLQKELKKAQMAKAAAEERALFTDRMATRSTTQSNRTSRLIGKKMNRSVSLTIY
T6 sequence (Q96SW2 whole entry): as the sequence (Q96SW2 whole entry) above
T6 sequence (Q16531 whole entry partner): as the sequence (Q16531 whole entry partner) above
T4 sequence (Q9UKS7 whole entry): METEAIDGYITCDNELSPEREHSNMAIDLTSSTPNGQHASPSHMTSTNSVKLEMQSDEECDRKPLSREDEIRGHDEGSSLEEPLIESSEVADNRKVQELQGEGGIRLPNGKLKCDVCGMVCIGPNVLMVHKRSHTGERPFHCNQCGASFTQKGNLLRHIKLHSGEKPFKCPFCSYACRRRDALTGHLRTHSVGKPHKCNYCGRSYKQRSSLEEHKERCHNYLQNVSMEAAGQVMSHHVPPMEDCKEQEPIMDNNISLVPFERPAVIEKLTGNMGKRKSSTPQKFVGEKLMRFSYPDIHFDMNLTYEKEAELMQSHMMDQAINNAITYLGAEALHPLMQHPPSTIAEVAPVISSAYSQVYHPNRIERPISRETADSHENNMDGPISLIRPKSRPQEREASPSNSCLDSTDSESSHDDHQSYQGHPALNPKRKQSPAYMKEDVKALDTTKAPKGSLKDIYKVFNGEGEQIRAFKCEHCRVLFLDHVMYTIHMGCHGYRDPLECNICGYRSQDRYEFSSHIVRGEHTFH
T4 sequence (Q96SW2 whole entry): as the sequence (Q96SW2 whole entry) above
T4 sequence (Q16531 whole entry partner): as the sequence (Q16531 whole entry partner) above
T5 sequence (Q13422 whole entry): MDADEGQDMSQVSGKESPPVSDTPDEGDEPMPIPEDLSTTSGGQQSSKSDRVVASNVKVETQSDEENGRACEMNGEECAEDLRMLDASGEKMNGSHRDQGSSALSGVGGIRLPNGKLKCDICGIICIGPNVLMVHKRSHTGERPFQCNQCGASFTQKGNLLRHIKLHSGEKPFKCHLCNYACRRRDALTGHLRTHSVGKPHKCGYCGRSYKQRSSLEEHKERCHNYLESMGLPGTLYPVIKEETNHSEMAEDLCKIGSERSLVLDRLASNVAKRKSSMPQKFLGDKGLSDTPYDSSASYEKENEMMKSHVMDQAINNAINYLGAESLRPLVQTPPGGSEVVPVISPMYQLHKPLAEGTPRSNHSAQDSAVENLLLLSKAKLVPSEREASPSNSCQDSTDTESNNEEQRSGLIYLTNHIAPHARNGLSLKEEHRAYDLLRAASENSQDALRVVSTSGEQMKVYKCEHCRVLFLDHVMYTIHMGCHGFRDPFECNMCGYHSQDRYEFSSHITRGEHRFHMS
T5 sequence (Q96SW2 whole entry): as the sequence (Q96SW2 whole entry) above
T5 sequence (Q16531 whole entry partner): as the sequence (Q16531 whole entry partner) above
T2 sequence (Q9UKT9 whole entry): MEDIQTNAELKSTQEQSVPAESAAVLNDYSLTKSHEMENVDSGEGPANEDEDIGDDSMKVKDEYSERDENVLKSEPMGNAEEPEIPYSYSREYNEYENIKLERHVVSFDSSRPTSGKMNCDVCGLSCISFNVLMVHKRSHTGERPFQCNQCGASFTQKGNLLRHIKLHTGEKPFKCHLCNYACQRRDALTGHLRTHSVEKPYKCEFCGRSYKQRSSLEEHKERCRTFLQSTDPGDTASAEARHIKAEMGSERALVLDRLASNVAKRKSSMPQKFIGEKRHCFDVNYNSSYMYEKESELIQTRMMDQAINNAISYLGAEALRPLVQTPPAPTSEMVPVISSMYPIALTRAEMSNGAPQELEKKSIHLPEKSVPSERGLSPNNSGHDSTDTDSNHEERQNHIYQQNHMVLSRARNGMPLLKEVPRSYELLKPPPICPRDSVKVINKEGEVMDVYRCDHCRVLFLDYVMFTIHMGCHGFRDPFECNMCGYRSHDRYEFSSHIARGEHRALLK
T2 sequence (Q96SW2 whole entry): as the sequence (Q96SW2 whole entry) above
T2 sequence (Q16531 whole entry partner): as the sequence (Q16531 whole entry partner) above

What is called inhibition is how much of the control response was suppressed. Turning to `O=C1CCC(N2Cc3c(CN4CCN(c5ccncc5Cl)CC4)cccc3C2=S)C(=O)N1` (stereo not shown) [GT-08731, 3-(4-((4-(3-chloropyridin-4-yl)piperazin-1-yl)methyl)-1-thioxoisoindolin-2-yl)piperidine-2,6-dione], in the experiment on GSPT1, the “GSPT1 substrate protein remaining %” value is given as “A (0% ≤ substrate protein remaining % ≤ 80%)”. For the same molecule, in experiment [1], the inhibition at 0.5 µM is 60 to 80% and the inhibition at 2 µM was in the range of 80 to 100%. Further, the “IKZF3 substrate protein remaining %” value at IKZF3 is “B (80%< substrate protein remaining %≤ 100%)”. Further, the “CK1α substrate protein remaining %” value on CK1α was “B (80%< substrate protein remaining %≤ 100%)”. In addition, the “IKZF2 substrate protein remaining %” value on IKZF2 was “B (80%< substrate protein remaining %≤ 100%)”. Also, on IKZF1, the “IKZF 1 substrate protein remaining %” value is recorded as “B (80%< substrate protein remaining %≤ 100%)”. In addition, the “Wee1 substrate protein remaining %” value at WEE1 was “A (0% ≤ substrate protein remaining % ≤ 80%)”.
As to `O=C1CCC(N2Cc3c(CN4CCN(c5ccnc(Cl)c5F)CC4)cccc3C2=S)C(=O)N1` (stereo not shown) [GT-08732, 3-(4-((4-(2-chloro-3-fluoropyridin-4-yl)piperazin-1-yl)methyl)-1-thioxoisoindolin-2-yl)piperidine-2,6-dione], in the experiment on GSPT1, the “GSPT1 substrate protein remaining %” value is given as “B (80%< substrate protein remaining %≤ 100%)”. Besides, in experiment [1], the inhibition at 0.5 µM fell in the range of 60 to 80% and the inhibition at 2 µM was 80 to 100%. For the same molecule, on IKZF3, the “IKZF3 substrate protein remaining %” value is “B (80%< substrate protein remaining %≤ 100%)”. In addition, the “CK1α substrate protein remaining %” value at CK1α is reported as “B (80%< substrate protein remaining %≤ 100%)”. For the same molecule, the “IKZF2 substrate protein remaining %” value on IKZF2 was “B (80%< substrate protein remaining %≤ 100%)”. Also, on IKZF1, the “IKZF 1 substrate protein remaining %” value is reported as “B (80%< substrate protein remaining %≤ 100%)”. Further, the “Wee1 substrate protein remaining %” value on WEE1 is recorded as “A (0% ≤ substrate protein remaining % ≤ 80%)”.
Consider `O=C1CCC(N2Cc3c(CN4CCN(c5ccnc(Br)c5F)CC4)cccc3C2=S)C(=O)N1` (stereo not shown) [GT-08733, 3-(4-((4-(2-bromo-3-fluoropyridin-4-yl)piperazin-1-yl)methyl)-1-thioxoisoindolin-2-yl)piperidine-2,6-dione], for which the “GSPT1 substrate protein remaining %” value with GSPT1 was “A (0% ≤ substrate protein remaining % ≤ 80%)”. In experiment [1], the inhibition at 0.5 µM fell in the range of 60 to 80% and the inhibition at 2 µM fell in the range of 80 to 100%. Moreover, the “IKZF3 substrate protein remaining %” value on IKZF3 is recorded as “B (80%< substrate protein remaining %≤ 100%)”. Besides, the “CK1α substrate protein remaining %” value at CK1α is given as “B (80%< substrate protein remaining %≤ 100%)”. Also, the “IKZF2 substrate protein remaining %” value at IKZF2 was “B (80%< substrate protein remaining %≤ 100%)”. Further, the “IKZF 1 substrate protein remaining %” value on IKZF1 is recorded as “B (80%< substrate protein remaining %≤ 100%)”. In addition, the “Wee1 substrate protein remaining %” value on WEE1 was “A (0% ≤ substrate protein remaining % ≤ 80%)”.
Regarding `O=C1CCC(N2Cc3c(CN4CCN(c5ccnc(Cl)c5Br)CC4)cccc3C2=S)C(=O)N1` (stereo not shown) [GT-08734, 3-(4-((4-(3-bromo-2-chloropyridin-4-yl)piperazin-1-yl)methyl)-1-thioxoisoindolin-2-yl)piperidine-2,6-dione], the “GSPT1 substrate protein remaining %” value with GSPT1 is given as “A (0% ≤ substrate protein remaining % ≤ 80%)”. Besides, in experiment [1], the inhibition at 0.5 µM was in the range of 60 to 80% and the inhibition at 2 µM is 80 to 100%. Further, at IKZF3, the “IKZF3 substrate protein remaining %” value is “B (80%< substrate protein remaining %≤ 100%)”. Besides, the “CK1α substrate protein remaining %” value on CK1α was “B (80%< substrate protein remaining %≤ 100%)”. Moreover, the “IKZF2 substrate protein remaining %” value at IKZF2 is reported as “B (80%< substrate protein remaining %≤ 100%)”. Besides, the “IKZF 1 substrate protein remaining %” value on IKZF1 was “B (80%< substrate protein remaining %≤ 100%)”. In addition, the “Wee1 substrate protein remaining %” value on WEE1 is “A (0% ≤ substrate protein remaining % ≤ 80%)”.
For `O=C1CCC(N2Cc3c(CN4CCN(c5ccnc(Cl)c5Cl)CC4)cccc3C2=S)C(=O)N1` (stereo not shown) [GT-08735, 3-(4-((4-(2,3-dichloropyridin-4-yl)piperazin-1-yl)methyl)-1-thioxoisoindolin-2-yl)piperidine-2,6-dione], the “GSPT1 substrate protein remaining %” value in the experiment on GSPT1 was “B (80%< substrate protein remaining %≤ 100%)”. In experiment [1], the inhibition at 0.5 µM fell in the range of 60 to 80% and the inhibition at 2 µM lay within 80 to 100%. Moreover, the “IKZF3 substrate protein remaining %” value at IKZF3 was “B (80%< substrate protein remaining %≤ 100%)”. In addition, at CK1α, the “CK1α substrate protein remaining %” value is “B (80%< substrate protein remaining %≤ 100%)”. Besides, the “IKZF2 substrate protein remaining %” value at IKZF2 is on record as “B (80%< substrate protein remaining %≤ 100%)”. Moreover, the “IKZF 1 substrate protein remaining %” value at IKZF1 is “B (80%< substrate protein remaining %≤ 100%)”. In addition, the “Wee1 substrate protein remaining %” value on WEE1 is listed as “A (0% ≤ substrate protein remaining % ≤ 80%)”.
As for `O=C1CCC(N2Cc3c(CN4CCN(c5c(Cl)cncc5Br)CC4)cccc3C2=S)C(=O)N1` (stereo not shown) [GT-08801, 3-(4-((4-(3-bromo-5-chloropyridin-4-yl)piperazin-1-yl)methyl)-1-thioxoisoindolin-2-yl)piperidine-2,6-dione], in the experiment with GSPT1, the “GSPT1 substrate protein remaining %” value is “B (80%< substrate protein remaining %≤ 100%)”. Further, in experiment [1], the inhibition at 0.5 µM was 60 to 80% and the inhibition at 2 µM was 80 to 100%. In addition, on IKZF3, the “IKZF3 substrate protein remaining %” value was “B (80%< substrate protein remaining %≤ 100%)”. Also, the “CK1α substrate protein remaining %” value at CK1α is “B (80%< substrate protein remaining %≤ 100%)”. For the same molecule, the “IKZF2 substrate protein remaining %” value on IKZF2 is listed as “B (80%< substrate protein remaining %≤ 100%)”. Besides, the “IKZF 1 substrate protein remaining %” value at IKZF1 is listed as “B (80%< substrate protein remaining %≤ 100%)”. Further, the “Wee1 substrate protein remaining %” value on WEE1 is “A (0% ≤ substrate protein remaining % ≤ 80%)”.
For the molecule `O=C1CCC(N2Cc3c(CN4CCN(c5c(F)cncc5Cl)CC4)cccc3C2=S)C(=O)N1` (stereo not shown) [GT-08802, 3-(4-((4-(3-chloro-5-fluoropyridin-4-yl)piperazin-1-yl)methyl)-1-thioxoisoindolin-2-yl)piperidine-2,6-dione], the “GSPT1 substrate protein remaining %” value with GSPT1 is listed as “B (80%< substrate protein remaining %≤ 100%)”. Besides, in experiment [1], the inhibition at 0.5 µM is 53 to 60% and the inhibition at 2 µM lay within 80 to 100%. On IKZF3, the “IKZF3 substrate protein remaining %” value is “B (80%< substrate protein remaining %≤ 100%)”. Moreover, the “CK1α substrate protein remaining %” value at CK1α is recorded as “B (80%< substrate protein remaining %≤ 100%)”. Besides, the “IKZF2 substrate protein remaining %” value on IKZF2 is listed as “B (80%< substrate protein remaining %≤ 100%)”. For the same molecule, the “IKZF 1 substrate protein remaining %” value on IKZF1 is “B (80%< substrate protein remaining %≤ 100%)”. The “Wee1 substrate protein remaining %” value at WEE1 is recorded as “A (0% ≤ substrate protein remaining % ≤ 80%)”.
On to `O=C1CCC(N2Cc3c(CN4CCN(c5nccc(Cl)c5F)CC4)cccc3C2=S)C(=O)N1` (stereo not shown) [GT-08803, 3-(4-((4-(4-chloro-3-fluoropyridin-2-yl)piperazin-1-yl)methyl)-1-thioxoisoindolin-2-yl)piperidine-2,6-dione], for which the “GSPT1 substrate protein remaining %” value in the experiment with GSPT1 is “B (80%< substrate protein remaining %≤ 100%)”. Besides, in experiment [1], the inhibition at 0.5 µM is 60 to 80% and the inhibition at 2 µM fell in the range of 80 to 100%. Besides, at IKZF3, the “IKZF3 substrate protein remaining %” value is “B (80%< substrate protein remaining %≤ 100%)”. At CK1α, the “CK1α substrate protein remaining %” value is “B (80%< substrate protein remaining %≤ 100%)”. On IKZF2, the “IKZF2 substrate protein remaining %” value is “B (80%< substrate protein remaining %≤ 100%)”. Moreover, the “IKZF 1 substrate protein remaining %” value on IKZF1 is reported as “B (80%< substrate protein remaining %≤ 100%)”. The “Wee1 substrate protein remaining %” value at WEE1 is “A (0% ≤ substrate protein remaining % ≤ 80%)”.
